Measurements published in US7893299B2, “Interleukin-1 and tumor necrosis factor-αmodulators; syntheses of such modulators and methods of using such modulators” (Nereus Pharmaceuticals, Inc., priority 2005, dated 2011).
Where two headings read alike, the source gives them in different places.

Assays:
RPMI 8226 (MM) = test: 48 hr cytotoxicity, RPMI 8226; type: cell-based, human
Description: Human colon adenocarcinoma HT-29 (ATCC# HTB-38), prostate adenocarcinoma PC-3 (ATCC# CRL-1435), breast adenocarcinoma MDA-MB231 (ATCC# HTB-26), Multiple Myeloma RPMI 8226 (ATCC# CCL-155) and U266 (ATCC # TIB-196) cell lines and human normal fibroblast CCD-27sk (ATCC# CRL-1475) were all purchased from ATCC (Manassas, Va.). The cells were maintained in their respective ATCC recommended culture media at 37° C., 5% CO2 and 95% humidified air.
The cytotoxicity assays were performed by seeding individual cell lines at appropriate density in the 96 well flat-bottomed plates and allowed to attach for 24 hours at 37° C., 5% CO2 and 95% humidified air (RPMI 8226 and U266 cells were plated in 96 well plates on the day of compound addition). Serially diluted NPI-1387 was added in triplicate to cells at concentrations ranging from 160 nM to 20 μM. Final concentration of 0.25% (v/v) DMSO was used as the vehicle control. Cell viability was assessed 48 hours later by measuring the fluorescence of the reduction product of Resazurin by a Fusion microplate fluorometer (PerkinElmer) with λex=535 nm and λem=590 nm filters. The IC50 values (the drug concentration at which 50% of the maximal observed cytotoxicity is established) were calculated in XLFit 3.0 or XLFit 4.0 (ID Business Solutions Ltd) using a sigmoidal dose response model.

[1] = system: NF-κB DNA binding activity; test: NF-κB DNA binding activity, EMSA, RPMI 8226; type: cell-based; settings: LPS
MM cells = test: MM cell death after 48 hours on co-administration with other drugs; type: cell-based
Description: In Vitro assays measuring the percentage of MM cell death after 48 hours were carried out with bortezomib and dexamethasone, each in concert with NPI-1387. […] (See FIGS. 70 and 71).

[2] = system: TNF-α induced nuclear factor-κB (NF-κB) activation; test: HEK293 NF-κB/Luciferase reporter cell line; type: cell-based
[3] = system: bone marrow stromal cells (BMSCs); test: viability of MM patient-derived bone marrow stromal cells (BMSCs); type: cell-based
Text: Besides nuclear condensation, NF-KB inhibitor triggered proteolytic cleavage of poly (ADP ribose) polymerase (PARP), a hallmark of apoptosis.

[4] = system: Bcl-2-overexpressing MM.1S cells; test: viability of Bcl-2-overexpressing MM.1S cells; type: cell-based; settings: 48 hours; 0, 12, 25 and 50 uM
Description: Two cell-based assays were treated with NPI-1387 for 48 hours at concentrations of 0, 12, 25 and 50 uM. Both Bcl-2-overexpressing MM.1S cells and bortezomib-resistant DHL-4 lymphoma cells were used and the percentage of viable cells of each was recorded. […] (See FIG. 67).

[5] = system: NF-κB DNA binding activity; test: NF-κB DNA binding activity, EMSA, PC-3; type: cell-based; settings: TNF-α
Panc1 and HS766T = test: TRAIL resistance of human pancreatic cancer cell lines; type: cell-based
Text: Novel diterpene inhibitors of NFκB derived from acanthoic acid (NPI-1342 (Formula IIB-a1) and NPI-1387; compound 24 under scheme 4 above) show measurable effects in human pancreatic cancer cell lines in vitro. Seven of the nine cell lines were moderately sensitive to apoptosis induced by death receptor ligand Tumor Necrosis Factor (TNF) related apoptosis-inducing ligand (TRAIL). […] Specific silencing of NFkB/p65 expression mimicked these effects. Furthermore, combination treatment of Salinosporamide A and either NPI-1342 or NPI-1387 led to induction of apoptosis as measured by PI FACS analysis. Specifically, levels of DNA fragmentation increased from 4% to 50% in HS766T cells and from 4% to 52% in Panc1 cells. The inhibitory effects of NPI-1342, NPI-1387 on NFκB were evaluated by Electromobility Shift Assays and confirmed by confocal microscopy.

[6] = system: MM cells with IL-6 or IGF-1; test: protective effects of MM bone marrow microenvironment; type: cell-based
B16-F10 melanoma cells = test: 48 hr cytotoxicity, B16-F10 melanoma; type: cell-based, murine; settings: 10% FBS, individual values
Description: (§1) B16-F10 (ATCC; CRL-6475), DU 145 (ATCC; HTB-81), HEK293 (ATCC; CRL-1573), HT-29 (ATCC; HTB-38), LoVo (ATCC; CCL-229), MDA-MB-231 (ATCC; HTB-26), MIA PaCa-2 (ATCC; CRL-1420), NCI-H292 (ATCC; CRL-1848), OVCAR-3 (ATCC, HTB-161), PANC-1 (ATCC; CRL-1469), PC-3 (ATCC; CRL-1435), RPMI 8226 (ATCC; CCL-155) and U266 (ATCC; TIB-196) are maintained in appropriate culture media. The cells are cultured in an incubator at 37° C. in 5% CO2 and 95% humidified air.
(§2) For cell growth inhibition assays, B16-F10, DU 145, HEK293, HT-29, LoVo, MDA-MB-231, MIA PaCa-2, NCI-H292, OVCAR-3, PANC-1, PC-3, RPMI 8226 and U266 cells are seeded at 1.25×10^3, 5×10^3, 1.5×10^4, 5×10^3, 5×10^3, 1×10^4, 2×10^3, 4×10^3, 1×10^4, 7.5×10^3, 5×10^3, 2×10^4, 2.5×10^4 cells/well respectively in 90 μl complete media into Corning 3904 black-walled, clear-bottom tissue culture plates. 20 mM stock solutions of compounds of Formula II, IIA, and IIB are prepared in 100% DMSO, aliquoted and stored at −80° C. Compounds of Formula II, IIA, and IIB are serially diluted and added in triplicate to the test wells resulting in final concentrations ranging from of 20 μM to 0.2 pM. The plates are returned to the incubator for 48 hours. The final concentration of DMSO is 0.25% in all samples.
(§3) Following 48 hours of drug exposure, 10 μl of 0.2 mg/ml resazurin (obtained from Sigma-Aldrich Chemical Co.) in Mg^2+, Ca^2+ free phosphate buffered saline is added to each well and the plates are returned to the incubator for 3-6 hours. Since living cells metabolize Resazurin, the fluorescence of the reduction product of Resazurin is measured using a Fusion microplate fluorometer (Packard Bioscience) with λex=535 nm and λem=590 nm filters. Resazurin dye in medium without cells was used to determine the background, which is subtracted from the data for all experimental wells.

[7] = 48 hr cytotoxicity, B16-F10 melanoma; type: cell-based, murine; settings: mouse, B16-F10 melanoma cells, 10% FBS, individual values
Description: as §1, §2, §3

C=CC(=O)C1(C)CCCC2(C)C3=CCC(C)(C=C)C[C@@H]3CC[C@H]12 (stereo in doubt) [NPI-1387, 1-[(1S,4aS,7R)-1,4a,7-Trimethyl-7-vinyl-1,2,3,4,4a,6,7,8,8a,9,10,10a-dodecahydro-1-phenanthrenyl]-2-propen-1-one]
IC50 (RPMI 8226 (MM)): 5.5 ± 0.8 µM
IC50 (RPMI 8226 (MM); Homo sapiens, RPMI-8226, 48 h): 5.1 ± 1 µM
NF-κB DNA binding activity [1]: inhibits the DNA binding activity of NF-κB in a dose-dependent manner
percentage of MM cell death, co-administration with bortezomib (MM cells): additive effects in increasing the percentage of MM cell death
percentage of MM cell death, co-administration with dexamethasone (MM cells): additive effects in increasing the percentage of MM cell death
TNF-α induced NF-κB activation [2]: reduced TNF-α induced nuclear factor-κB (NF-κB) activation
viability of bone marrow stromal (stem) cells [3]: does not affect the viability of bone marrow stem cells
viability of bone marrow stromal (stem) cells ([3]; listed as NF-KB inhibitor): does not affect the viability
percentage of viable cells [4]: marked decrease in the percentage of viable cells
NF-κB DNA binding activity [5]: inhibits the DNA binding activity of NF-κB in a dose-dependent manner
TRAIL resistance (Panc1 and HS766T): reversed TRAIL resistance
protective effects of IL-6 or IGF-1 [6]: does overcome the protective effects of IL-6 or IGF-1
% cytotox (B16-F10 melanoma cells): 92%
IC50 (B16-F10 melanoma cells): 7.5 µM
IC50 (B16-F10 melanoma cells; Mus musculus, B16-F10, 48 h): 6.2 µM
cytotoxicity at 48 h [7]: 94%
